Measured values from publication PMC10531311, “Anti-Inflammatory Activities of 8-Benzylaminoxanthines Showing High Adenosine A2A and Dual A1/A2A Receptor Affinity” (International Journal of Molecular Sciences, 2023).
Marks after values point to notes of the source that are not given here.

Assays:
formalin test in mice = assay: Formalin test; assay type: in vivo, albino Swiss mice
Experimental: Injection of formalin into the dorsal surface of the hind paw of a mouse produces a biphasic nocifensive behavioral response; i.e., licking, biting, flinching or lifting of the injected paw. The acute (neurogenic) nociceptive phase lasts for the first 5 min and is followed by a period of little activity for the next 10 min. The first phase of the test is directly associated with nociceptor stimulation and the development of neurogenic inflammation. The second (late) phase occurs between 15 and 30 min after formalin injection. The second phase depends on peripheral inflammation and the central sensitization of pain. Since this phase reflects the activation of inflammatory processes, the compounds active in this phase of the experiment also have an anti-inflammatory effect. The tested compounds 19, 22 and 24, were investigated in three doses: 10, 20 and 40 mg/kg bw. ASA (acetylsalicylic acid) was used as a reference compound and administered in doses of 50, 100 and 200 mg/kg. […] The strongest effect in this assay was produced by 24. […] In addition, this anti-nociceptive and anti-inflammatory effect was approximately 13.8 times greater than that observed for the reference compound (ASA). […] ASA also attenuated statistically significant pain responses in the late phases of the formalin test. […] The in vivo experiments were carried out on male albino Swiss mice weighing 18–26 g and male Wistar rats weighing 150–180 g. The animals were housed in constant temperature facilities exposed to a 12:12 light-dark cycle and maintained on a standard pellet diet and tap water given ad libitum. The control and experimental groups consisted of 6–8 animals each. The investigated compounds were intraperitoneally (ip) administered in the form of a suspension in 0.5% methylcellulose. Control animals received the equivalent volume of solvent. All procedures were conducted according to the guidelines of ICLAS (International Council on Laboratory Animals Science) and were approved by the Local Ethics Committee of the Jagiellonian University in Kraków. The mice were pretreated with the test compound or the vehicle and were allowed to acclimate in Plexiglas observation chambers (20 × 30 × 15 cm) for 30 min before the test. Then, 20 μL of a 5% formalin solution was intraplantarly injected into the right hind paw using a 26-gauge needle. Immediately after formalin injection, the animals were individually placed into glass beakers and were observed during the next 30 min. Time (in seconds) spent on licking or biting the injected paw in selected intervals, 0–5, 15–20, 20–25 and 25–30 min, was measured in each experimental group and was an indicator of nociceptive behavior [41]. The ED50 values and their confidence limits were estimated by the method of Litchfield and Wilcoxon.

[1] = Precipitation in culture medium seen under inverted microscope; assay type: physicochemical; details: 25 μM, 50 μM, 100 μM
HepG2 cells = assay: Hepatotoxicity, MTS cell viability; assay type: cell-based, human; details: 0.098 μM to 100 μM, 48 h
Experimental: Drug safety is a critical step in the process of drug development. […] In our studies, neurotoxicity and hepatotoxicity were evaluated in SH-SY5Y and HepG2 cells, respectively. The compounds were tested at 11 concentrations from 0.098 μM to 100 μM (see Figure 5). Cell viability was assessed after incubation for 24 h with the SH-SY5Y line and for 48 h with the HepG2 line.
To evaluate neurotoxicity and hepatotoxicity, the human neuroblastoma cell line SH-SY5Y (ATCC® no. CRL-2266™) and hepatoma cell line HepG2 (ATCC® no. HB-8065™) were used, respectively. The cells (SH-SY5Y: 5 × 10^3 cells/100μL/well and HepG2: 7 × 10^3 cells/100 μL/well) were seeded in transparent 96-well plates (Nunc) in DMEM supplemented with 10% FBS and cultured overnight. The next day, the medium was changed to medium containing dimethylsulfoxide (DMSO < 0.1%, vehicle control) or an increasing concentration of compounds MZ-1483 (19), MZ-1490 (22) and MZ-1495 (24) ([…]–100 × 10^−6 M). To perform dose-response analysis, two-fold serial dilutions (11 points) were prepared. Treatment with compounds was performed for 48 h. After the incubation time, the cell viability was examined using an MTS-based [3-(4,5-dimethylthiazol-2-yl)-5-(3-carboxymethoxyphenyl)-2-(4-sulfophenyl)-2 H tetrazolium] CellTiter96® AQueous One Solution Cell Proliferation Assay (Promega, Madison, WI, USA) following the manufacturer’s protocol. Briefly, 20 μL of MTS solution was pipetted into each well containing 100 μL of culture or culture medium (negative control) and incubated at 37 °C for 1 h. After incubation time, formazan product turnover absorbance was measured at 490 nm using the microplate reader (Tecan Spark®, Tecan Group Ltd., Maennedorf, Switzerland). A reference wavelength of 630 nm was used.

CYP3A4 = molecular target: T1, CYP3A4 (Homo sapiens, UniProt P08684); assay: Drug-drug interactions, CYP3A4 P450-Glo; assay type: in vitro ADME; details: 10 µM
T1 construct: purchased Promega (Madison, WI, USA)
T1 sequence (P08684 whole entry): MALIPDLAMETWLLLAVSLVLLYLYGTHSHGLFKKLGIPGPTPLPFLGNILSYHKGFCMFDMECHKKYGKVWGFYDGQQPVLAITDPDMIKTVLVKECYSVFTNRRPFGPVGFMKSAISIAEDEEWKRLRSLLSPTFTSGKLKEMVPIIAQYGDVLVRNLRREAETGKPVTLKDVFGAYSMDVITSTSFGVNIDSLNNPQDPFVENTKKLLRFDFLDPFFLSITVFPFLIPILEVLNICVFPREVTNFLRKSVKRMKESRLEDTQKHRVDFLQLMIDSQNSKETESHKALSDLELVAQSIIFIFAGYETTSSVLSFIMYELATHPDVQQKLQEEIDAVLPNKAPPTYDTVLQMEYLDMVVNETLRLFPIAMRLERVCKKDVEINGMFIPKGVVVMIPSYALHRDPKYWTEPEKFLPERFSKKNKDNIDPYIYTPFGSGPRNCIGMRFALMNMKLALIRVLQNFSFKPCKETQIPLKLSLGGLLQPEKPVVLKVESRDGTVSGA
Experimental: To predict potential drug-drug interactions (DDI) effects on three of the most relevant cytochrome P450 (CYP), isoforms CYP3A4, CYP2D6 and CYP2C9 were investigated at a concentration of 10 µM. The results were compared with the effects of 1 µM of the selective inhibitors ketoconazole (CYP3A4), quinidine (CYP2D6) and sulfaphenazole (CYP2C9).
The influence of the tested compounds on recombinant human cytochromes was determined with the use of CYP3A4, CYP2D6 and CYP2C9 P450-Glo™ kits and protocols provided by Promega (Madison, WI, USA). Compounds were tested at a concentration of 10 μM. Reference inhibitors: Ketoconazole (CYP3A4), quinidine (CYP2D6) and sulfaphenazole (CYP2C9) were tested at 1 μM. The luminescent signals were measured using a microplate reader EnSpire PerkinElmer (Waltham, MA, USA).

C#CCn1c(=O)c2c(nc(NCc3ccccc3Cl)n2C)n(C)c1=O [compound 19, 8-((2-Chlorobenzyl)amino)-3,7-dimethyl-1-(prop-2-yn-1-yl)-3,7-dihydro-1H-purine-2,6-dione]
Late Phase Inhibition (%) (formalin test in mice; mice, 10 mg/kg ip): 26.0% | Licking of the Hind Paw Early Phase (0–5 min) Mean ± SEM (formalin test in mice; mice, 10 mg/kg ip): 41.8 ± 5.5 s | Licking of the Hind Paw Late Phase (15–30 min) Mean ± SEM (formalin test in mice; mice, 10 mg/kg ip): 88.4 ± 5.6 s | Early Phase Inhibition (%) (formalin test in mice; mice, 20 mg/kg ip): 0% | Late Phase Inhibition (%) (formalin test in mice; mice, 20 mg/kg ip): 35.7% | Licking of the Hind Paw Early Phase (0–5 min) Mean ± SEM (formalin test in mice; mice, 20 mg/kg ip): 48.2 ± 10.0 s | Licking of the Hind Paw Late Phase (15–30 min) Mean ± SEM (formalin test in mice; mice, 20 mg/kg ip): 76.8 ± 26.4 s | Early Phase Inhibition (%) (formalin test in mice; mice, 40 mg/kg ip): 0% | Late Phase Inhibition (%) (formalin test in mice; mice, 40 mg/kg ip): 47.2% | Licking of the Hind Paw Early Phase (0–5 min) Mean ± SEM (formalin test in mice; mice, 40 mg/kg ip): 42.6 ± 2.8 s | Licking of the Hind Paw Late Phase (15–30 min) Mean ± SEM (formalin test in mice; mice, 40 mg/kg ip): 63.0 ± 6.6 ^b sec | behaviour in the culture medium at the highest concentrations [1]: precipitated and formed crystals in the culture medium | melting point: 223 to 225 °C | hepatotoxicity, cell viability (in words) (HepG2 cells): high safety profile | CYP3A4 activity, % of the control activity (CYP3A4): ~ 20%

C#CCn1c(=O)c2c(nc(NCc3c(F)cccc3Cl)n2C)n(C)c1=O [compound 22, 8-((2-Chloro-6-fluorobenzyl)amino)-3,7-dimethyl-1-(prop-2-yn-1-yl)-3,7-dihydro-1H-purine-2,6-dione]
Early Phase Inhibition (%) (formalin test in mice; mice, 10 mg/kg ip): 0% | Late Phase Inhibition (%) (formalin test in mice; mice, 10 mg/kg ip): 22.8% | Licking of the Hind Paw Early Phase (0–5 min) Mean ± SEM (formalin test in mice; mice, 10 mg/kg ip): 41.6 ± 5.4 s | Licking of the Hind Paw Late Phase (15–30 min) Mean ± SEM (formalin test in mice; mice, 10 mg/kg ip): 92.2 ± 6.5 s | Licking of the Hind Paw Early Phase (0–5 min) Mean ± SEM (formalin test in mice; mice, 20 mg/kg ip): 41.0 ± 8.6 s | Licking of the Hind Paw Late Phase (15–30 min) Mean ± SEM (formalin test in mice; mice, 20 mg/kg ip): 78.2 ± 20.3 s | Early Phase Inhibition (%) (formalin test in mice; mice, 40 mg/kg ip): 5.8% | Late Phase Inhibition (%) (formalin test in mice; mice, 40 mg/kg ip): 48.0% | Licking of the Hind Paw Early Phase (0–5 min) Mean ± SEM (formalin test in mice; mice, 40 mg/kg ip): 39.2 ± 1.3 s | Licking of the Hind Paw Late Phase (15–30 min) Mean ± SEM (formalin test in mice; mice, 40 mg/kg ip): 62.0 ± 5.2 ^b sec | behaviour in the culture medium at the highest concentrations [1]: precipitated and formed crystals in the culture medium | melting point: 276 to 278 °C | hepatotoxicity, cell viability (in words) (HepG2 cells): high safety profile | CYP3A4 activity, % of the control activity (CYP3A4): around 75%

C#CCn1c(=O)c2c(nc(NCc3cccc(Br)c3)n2C)n(C)c1=O [compound 24, 8-((3-Bromobenzyl)amino)-3,7-dimethyl-1-(prop-2-yn-1-yl)-3,7-dihydro-1H-purine-2,6-dione]
ED50 (formalin test in mice; Mus musculus, mice, II (late) phase, method of Litchfield and Wilcoxon, read-out: calculated ED50 in the formalin test): 9.1 mg/kg | effect, times greater than that of the reference compound (ASA) (formalin test in mice; formalin test, from ED50): approximately 13.8 times | Early Phase Inhibition (%) (formalin test in mice; mice, 10 mg/kg ip): 0% | Late Phase Inhibition (%) (formalin test in mice; mice, 10 mg/kg ip): 48.7% | Licking of the Hind Paw Early Phase (0–5 min) Mean ± SEM (formalin test in mice; mice, 10 mg/kg ip): 43.2 ± 6.6 s | Licking of the Hind Paw Late Phase (15–30 min) Mean ± SEM (formalin test in mice; mice, 10 mg/kg ip): 61.2 ± 6.4 ^b sec | Early Phase Inhibition (%) (formalin test in mice; mice, 20 mg/kg ip): 24.5% | Late Phase Inhibition (%) (formalin test in mice; mice, 20 mg/kg ip): 82.9% | Licking of the Hind Paw Early Phase (0–5 min) Mean ± SEM (formalin test in mice; mice, 20 mg/kg ip): 31.4 ± 5.0 s | Licking of the Hind Paw Late Phase (15–30 min) Mean ± SEM (formalin test in mice; mice, 20 mg/kg ip): 20.4 ± 10.6 ^d sec | Early Phase Inhibition (%) (formalin test in mice; mice, 40 mg/kg ip): 26.0% | Late Phase Inhibition (%) (formalin test in mice; mice, 40 mg/kg ip): 89.7% | Licking of the Hind Paw Early Phase (0–5 min) Mean ± SEM (formalin test in mice; mice, 40 mg/kg ip): 30.8 ± 6.7 s | Licking of the Hind Paw Late Phase (15–30 min) Mean ± SEM (formalin test in mice; mice, 40 mg/kg ip): 12.2 ± 3.3 ^d sec | behaviour in the culture medium at the highest concentrations [1]: precipitated and formed crystals in the culture medium | melting point: 248 to 250 °C | hepatotoxicity, cell viability (in words) (HepG2 cells): high safety profile | CYP3A4 activity, % of the control activity (CYP3A4): ~ 20%
